Patent US20240408169A1 (priority 2023, published 2024)
*1 amine or outer side, *2 acyl side, *3 side chain or, on linkers, in order; H or OH if unused. Where a SMILES comes first, the peptide text is derived from it. Bridges are numbered along the chain shown (N, C = ends). [ ]: non-standard residue; d: D form. The star is where a group is joined. X122 = CN([C@@H](Cc1cc(Cl)ccc1C1=CCN(C(=O)C(C)(C)C)CC1)C(=O)[*:2])[*:1]; X181 = CN([C@@H](Cc1cc(Cl)ccc1C1=CCN(C(=O)C2CC2)CC1)C(=O)[*:2])[*:1]; NMeAla(5-Cl-2-cPrO-3-pyridyl) = CN[C@@H](Cc1cc(Cl)cnc1OC1CC1)C(=O)O; X167 = CN([C@@H](Cc1cc(F)ccc1C1=CCN(S(C)(=O)=O)CC1)C(=O)[*:2])[*:1]; X137 = CN([C@@H](Cc1cc(F)ccc1-c1cnn(S(C)(=O)=O)c1)C(=O)[*:2])[*:1]; X200 = CN([C@@H](Cc1cc(F)ccc1C1CCN(C(=O)C2CC2)CC1)C(=O)[*:2])[*:1]; X153 = CN([C@@H](Cc1cc(F)ccc1-c1cnn(C2CCOCC2)c1)C(=O)[*:2])[*:1]; X151 = CN([C@@H](Cc1cc(Cl)ccc1-c1cnn(C2CCC2)c1)C(=O)[*:2])[*:1]; X178 = CN([C@@H](Cc1cc(F)ccc1-c1cnn(C2CCOC2)c1)C(=O)[*:2])[*:1]; X208 = CN([C@@H](Cc1cc(F)ccc1-c1cnn(CC(F)F)c1)C(=O)[*:2])[*:1]; NMehhhLys(Me) = CN([C@@H](CCCCCCCN(C)[*:3])C(=O)[*:2])[*:1]; NMe(hhhLys) = CN([C@@H](CCCCCCCN[*:3])C(=O)[*:2])[*:1]; Cyclobutanecarbonyl(1-CF3) = O=C(C1(C(F)(F)F)CCC1)*; cBuCO(3,3-F2-1-CF3) = O=C(C1(C(F)(F)F)CC(F)(F)C1)*; Pro(trans-4-F) = O=C(O)[C@@H]1C[C@@H](F)CN1; Gly(cPr) = N[C@H](C(=O)O)C1CC1

Assays:
[1] = molecular target: T1, CyclinA2/CDK2 (Homo sapiens, UniProt P20248); test: Fluorescence Polarization (FP) competitive binding assay, Cyclin A2/Cdk2; details: 8 nM Cyclin A2/Cdk2, 2 nM FAM probe; average of 2-3 independent experiments; read-out: Cyclin A FP IC50;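 further: plates equilibrated two hours at room temperature before polarization reading, IC50 fitted from eight-concentration compound titration curves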
T1 construct: purchased CRELUX Protein Services

[2] = molecular target: T2, CyclinB1/CDK1 (Homo sapiens, UniProt P14635); test: Fluorescence Polarization (FP) competitive binding assay, Cyclin B1/Cdk1; details: 10 nM Cyclin B1/Cdk1, 2 nM FAM probe; average of 2-3 independent experiments; read-out: Cyclin B FP IC50;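 further: fluorescence polarization read after equilibration at room temperature, with IC50 taken from serially diluted dose-response curves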
T2 construct: purchased Eurofins, discovery 14-450

[3] = molecular target: T3, CyclinE1/CDK2 (Homo sapiens, UniProt P24864); test: Fluorescence Polarization (FP) competitive binding assay, Cyclin E1/Cdk2; details: 10 nM Cyclin E1/Cdk2, 2 nM FAM probe; average of 2-3 independent experiments; read-out: Cyclin E FP IC50;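 further: readings taken after two-hour equilibration at room temperature in HEPES buffer with NaCl, DTT, NP-40 and BSA, IC50 fitted from eight-concentration serial dilution series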
T3 construct: purchased Eurofins, discovery 14-475

[4] = system: NCI-H1048 cells; test: MTT proliferation assay, NCI-H1048; assay type: cell-based; details: 5 days compound exposure, 1:3 serial dilution starting at 10 μM;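 further: Dose-response in 96-well plates over 8 or 10 concentration points, with exposure spanning 3-4 cell doublings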
[5] = system: OVCAR3 cells; test: MTT proliferation assay, OVCAR3; assay type: cell-based; details: 5 days compound exposure, 1:3 serial dilution starting at 10 μM;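 further: compound given as an 8- or 10-point series, one day after plating, with exposure covering roughly 3-4 cell doublings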

Compound	IC50 [1] [nM]	IC50 [2] [nM]	IC50 [3] [nM]	GI50 [4] [nM]	GI50 [5] [nM]
COCn1cc(-c2ccc(Cl)cc2C[C@H]2C(=O)N(C)CCCCC=CC[C@H](N(C)C(=O)[C@@H](NC(=O)[C@@H]3C[C@@H](F)CN3C(=O)C3(C(F)(F)F)CC(F)(F)C3)C3CC3)C(=O)N[C@@H](CC(C)C)C(=O)N2C)cn1 [Example 79]	50	20	630	30	40
CC(C)C[C@H]1NC(=O)[C@H](N(C)C(=O)[C@H](NC(=O)[C@H]2C[C@H](F)CN2C(=O)C2(C#N)CCC2)C2CC2)CCCCCCCN(C)C(=O)[C@@H](Cc2cc(Cl)ccc2-c2cnn(C)c2)N(C)C1=O [Example 82]	20	20	220	30	70
CC(C)C[C@@H]1NC(=O)[C@@H](N(C)C(=O)[C@@H](NC(=O)[C@@H]2C[C@@H](F)CN2C(=O)C2(C(F)(F)F)CCC2)C2CC2)CC=CCCCCN(C)C(=O)[C@H](Cc2cc(F)ccc2-c2cnn(CC(F)F)c2)N(C)C1=O [Example 83]	40	20	100	20	10
CC(C)C[C@@H]1NC(=O)[C@@H](N(C)C(=O)[C@@H](NC(=O)[C@@H]2C[C@@H](F)CN2C(=O)C2(C(F)(F)F)CC(F)(F)C2)C2CC2)CC=CCCCCN(C)C(=O)[C@H](Cc2cc(F)ccc2-c2cnn(C3CCOCC3)c2)N(C)C1=O [Example 84]	50	20	290	20	10
CC(C)C[C@@H]1NC(=O)[C@@H](N(C)C(=O)[C@@H](NC(=O)[C@@H]2C[C@@H](F)CN2C(=O)C2(C(F)(F)F)CC(F)(F)C2)C2CC2)CC=CCCCCN(C)C(=O)[C@H](Cc2cc(F)ccc2-c2cnn(C3CCOC3)c2)N(C)C1=O (stereo partly drawn) [Example 85]	60	20	280	20	20
CC(C)C[C@@H]1NC(=O)[C@@H](N(C)C(=O)[C@@H](NC(=O)[C@@H]2C[C@@H](F)CN2C(=O)C2(C(F)(F)F)CC(F)(F)C2)C2CC2)CC=CCCCCN(C)C(=O)[C@H](Cc2cc(F)ccc2-c2cnn(C3CC3)c2)N(C)C1=O [Example 86]	60	20	250	20	20
CC(C)C[C@@H]1NC(=O)[C@@H](N(C)C(=O)[C@@H](NC(=O)[C@@H]2C[C@@H](F)CN2C(=O)C2(C(F)(F)F)CC(F)(F)C2)C2CC2)CC=CCCCCN(C)C(=O)[C@H](Cc2cc(F)ccc2-c2cnn(S(C)(=O)=O)c2)N(C)C1=O [Example 87]	180	20	890	50	60
CC(C)C[C@@H]1NC(=O)[C@@H](N(C)C(=O)[C@@H](NC(=O)[C@@H]2C[C@@H](F)CN2C(=O)C2(C(F)(F)F)CC(F)(F)C2)C2CC2)CC=CCCCCNC(=O)[C@H](Cc2cc(Cl)ccc2C2=CCN(C(=O)C(C)(C)C)CC2)N(C)C1=O [Example 91]	100	20	5730	230	260
CC(C)C[C@@H]1NC(=O)[C@@H](N(C)C(=O)[C@@H](NC(=O)[C@@H]2C[C@@H](F)CN2C(=O)C2(C(F)(F)F)CCC2)C2CC2)CCCCCCCN(C)C(=O)[C@H](Cc2cc(F)ccc2-c2cnn(CC(F)F)c2)N(C)C1=O [Example 92] ({Cyclobutanecarbonyl(1-CF3)}-[Pro(trans-4-F)][Gly(cPr)][NMehhhLys(Me)]L[X208]; lactam 3-C)	20	20	100	10	10
CC(C)C[C@@H]1NC(=O)[C@@H](N(C)C(=O)[C@@H](NC(=O)[C@@H]2C[C@@H](F)CN2C(=O)C2(C(F)(F)F)CC(F)(F)C2)C2CC2)CCCCCCCN(C)C(=O)[C@H](Cc2cc(F)ccc2-c2cnn(C3CCOCC3)c2)N(C)C1=O [Example 93] ({cBuCO(3,3-F2-1-CF3)}-[Pro(trans-4-F)][Gly(cPr)][NMehhhLys(Me)]L[X153]; lactam 3-C)	20	20	140	10	10
CC(C)C[C@@H]1NC(=O)[C@@H](N(C)C(=O)[C@@H](NC(=O)[C@@H]2C[C@@H](F)CN2C(=O)C2(C(F)(F)F)CC(F)(F)C2)C2CC2)CCCCCCCN(C)C(=O)[C@H](Cc2cc(F)ccc2-c2cnn(C3CCOC3)c2)N(C)C1=O (stereo partly drawn) [Example 94] ({cBuCO(3,3-F2-1-CF3)}-[Pro(trans-4-F)][Gly(cPr)][NMehhhLys(Me)]L[X178]; lactam 3-C)	20	20	180	10	10
CC(C)C[C@@H]1NC(=O)[C@@H](N(C)C(=O)[C@@H](NC(=O)[C@@H]2C[C@@H](F)CN2C(=O)C2(C(F)(F)F)CC(F)(F)C2)C2CC2)CCCCCCCN(C)C(=O)[C@H](Cc2cc(F)ccc2-c2cnn(S(C)(=O)=O)c2)N(C)C1=O [Example 95] ({cBuCO(3,3-F2-1-CF3)}-[Pro(trans-4-F)][Gly(cPr)][NMehhhLys(Me)]L[X137]; lactam 3-C)	50	20	530	10	20
CC(C)C[C@@H]1NC(=O)[C@@H](N(C)C(=O)[C@@H](NC(=O)[C@@H]2C[C@@H](F)CN2C(=O)C2(C(F)(F)F)CC(F)(F)C2)C2CC2)CCCCCCCNC(=O)[C@H](Cc2cc(Cl)ccc2C2=CCN(C(=O)C3CC3)CC2)N(C)C1=O [Example 97] ({cBuCO(3,3-F2-1-CF3)}-[Pro(trans-4-F)][Gly(cPr)][NMe(hhhLys)]L[X181]; lactam 3-C)	20	20	1450	20	30
CC(C)C[C@@H]1NC(=O)[C@@H](N(C)C(=O)[C@@H](NC(=O)[C@@H]2C[C@@H](F)CN2C(=O)C2(C(F)(F)F)CC(F)(F)C2)C2CC2)CCCCCCCNC(=O)[C@H](Cc2cc(Cl)ccc2C2=CCN(C(=O)C(C)(C)C)CC2)N(C)C1=O [Example 99] ({cBuCO(3,3-F2-1-CF3)}-[Pro(trans-4-F)][Gly(cPr)][NMe(hhhLys)]L[X122]; lactam 3-C)	20	20	1540	20	30
CC(C)C[C@@H]1NC(=O)[C@@H](N(C)C(=O)[C@@H](NC(=O)[C@@H]2C[C@@H](F)CN2C(=O)C2(C(F)(F)F)CC(F)(F)C2)C2CC2)CCCCCCCN(C)C(=O)[C@H](Cc2cc(F)ccc2C2=CCN(S(C)(=O)=O)CC2)N(C)C1=O [Example 100] ({cBuCO(3,3-F2-1-CF3)}-[Pro(trans-4-F)][Gly(cPr)][NMehhhLys(Me)]L[X167]; lactam 3-C)	20	20	450	20	20
CC(C)C[C@@H]1NC(=O)[C@@H](N(C)C(=O)[C@@H](NC(=O)[C@@H]2C[C@@H](F)CN2C(=O)C2(C(F)(F)F)CC(F)(F)C2)C2CC2)CCCCCCCN(C)C(=O)[C@H](Cc2cc(F)ccc2C2CCN(C(=O)C3CC3)CC2)N(C)C1=O [Example 101] ({cBuCO(3,3-F2-1-CF3)}-[Pro(trans-4-F)][Gly(cPr)][NMehhhLys(Me)]L[X200]; lactam 3-C)	30	20	470	20	30
CC(C)C[C@@H]1NC(=O)[C@@H](N(C)C(=O)[C@@H](NC(=O)[C@@H]2C[C@@H](F)CN2C(=O)C2(C(F)(F)F)CC(F)(F)C2)C2CC2)CCCCCCCNC(=O)[C@H](Cc2cc(Cl)cnc2OC2CC2)N(C)C1=O [Example 103] ({cBuCO(3,3-F2-1-CF3)}-[Pro(trans-4-F)][Gly(cPr)][NMe(hhhLys)]L[NMeAla(5-Cl-2-cPrO-3-pyridyl)]; lactam 3-C)	60	20	350	30	50
CC(C)C[C@@H]1NC(=O)[C@@H](N(C)C(=O)[C@@H](NC(=O)[C@@H]2C[C@@H](F)CN2C(=O)C2(C(F)(F)F)CC(F)(F)C2)C2CC2)CC=CCCCCN(C)C(=O)[C@H](Cc2cc(Cl)cnc2OC2CC2)N(C)C1=O [Example 104]	160	20	490	160	260
CC(C)C[C@@H]1NC(=O)[C@@H](N(C)C(=O)[C@@H](NC(=O)[C@@H]2C[C@@H](F)CN2C(=O)C2(C(F)(F)F)CCC2)C2CC2)CCCCCCCNC(=O)[C@H](Cc2cc(Cl)cnc2OC2CC2)N(C)C1=O [Example 108] ({Cyclobutanecarbonyl(1-CF3)}-[Pro(trans-4-F)][Gly(cPr)][NMe(hhhLys)]L[NMeAla(5-Cl-2-cPrO-3-pyridyl)]; lactam 3-C)	50	20	180	20	30
CC(C)C[C@@H]1NC(=O)[C@@H](N(C)C(=O)[C@@H](NC(=O)[C@@H]2C[C@@H](F)CN2C(=O)C2(C(F)(F)F)CC(F)(F)C2)C2CC2)CCCCCCCN(C)C(=O)[C@H](Cc2cc(Cl)ccc2-c2cnn(C3CCC3)c2)N(C)C1=O [Example 112] ({cBuCO(3,3-F2-1-CF3)}-[Pro(trans-4-F)][Gly(cPr)][NMehhhLys(Me)]L[X151]; lactam 3-C)	20	20	340	10	10
Cc1nnc(-c2ccc(Cl)cc2C[C@H]2C(=O)N(C)CCCCC=CC[C@H](N(C)C(=O)[C@@H](NC(=O)[C@@H]3C[C@@H](F)CN3C(=O)C3(C(F)(F)F)CC(F)(F)C3)C3CC3)C(=O)N[C@@H](CC(C)C)C(=O)N2C)o1 [Example 116]	40	20	330	40	50
